Experimental data as given in US20230089899A1, “METHOD FOR NON-TARGETED CHARACTERISATION OF A SOLUTION COMPRISING A PLURALITY OF SOLUTES” (COMMISSARIAT A L'ENERGIE ATOMIQUE ET AUX ENERGIES …, priority 2021, published 2023).

Experiments:
[1] = theoretical log D; cited from earlier work
physchem = test: physchem
Text: The total quantity of moles of the solutes in the mixture (i.e. n0) is approximately 5×10^−4 moles. The pH of the mixture is approximately 7.4 (phosphate buffer: PBS).
A sequence of 3 rows of partitions—as illustrated in FIG. 2—is applied to the mixture by using hydrated n-octanol for the partition of the aqueous mixture and that of the aqueous phases issued from the partitions of rows 1 and 2 (i.e. the phases φ11, φ21 and φ23), and an aqueous solution comprising PBS buffer having a pH of 7 in distilled water for the partition of the organic phases issued from the partitions of rows 1 and 2 (i.e. the phases φ12, φ22 and φ24).
The concentration of each solute in the phases issued from the partitions of rows 1, 2 and 3 (i.e. the phases φ11 to φ38) is monitored by UV-visible spectroscopy but only with the goal of verifying the proper running of the experiment.

[2] = pH 7.4, experimental log D, log D of the solutes as verified experimentally, hydrated n-octanol/PBS buffer, UV-visible spectroscopy
[3] = pH 7.4, log D, in the experimental conditions used for this validation, n-octanol/aqueous phase, pH approximately 7.4 (PBS)

Row | Compound | log D^THEOR [1] | logD (physchem; [2]) | logD (physchem; [3])
1 | CC(C)(c1ccc(O)cc1)c1ccc(O)cc1 [BPA, bisphenol A] | 3.32 | – | –
2 | c1ccc2[nH]cnc2c1 [Benzimidazole, benzimidazole] | – | 1.33 | 1.34
3 | Cn1c(=O)c2[nH]cnc2n(C)c1=O [Theophylline, theophylline] | – | 0.01 | -0.02
4 | CC(C)=O [acetone] | ~−0.24 | – | –
